Assay: Solubility determination
Settings: for Sol6: pH 6; for Sol7: pH 7
Experimental: Peptides (as TFA salts) were weighed out in a filter unit (Mini-UniPrep Syringeless Filter 0.45 μm, Whatman), and 0.1 M sodium diphosphate buffer at pH 6.4 or 7.0 was added to achieve 10 mg/ml final concentration. The peptide was dissolved by shaking the filter unit horizontally at 600 rpm for 2 hours at room temperature. The sample was filtered, to remove any insoluble particles and diluted to 1 mg/ml in 50% acetonitrile. The control was prepared by weighing out the corresponding peptide and dissolving it in 50% acetonitrile to final concentration of 1 mg/ml. Both the control and sample were analysed with reversed phase chromatography. The area under the peak of the sample was compared to the control and the solubility was calculated based on that ratio.
The pH was measured and recorded for each sample.
System: UltiMate 3000 UPLC, ThermoFisher
Mobile phase A: 5% acetonitrile, 95% water, 0.03% trifluoracetic acid.
Mobile phase B: 95% acetonitrile, 5% water, 0.03% trifluoracetic acid.
Gradient: 0-100% mobile phase B (2 mins.)
Column temperature: 50° C.

Compound | Sol6 [mg/mL] | Sol7 [mg/mL]
CC[C@H](C)[C@H](NC(=O)[C@H](CCC(=O)O)NC(=O)[C@H](CCC(=O)O)NC(=O)[C@@H]1CCCN1C(=O)[C@H](CCC(=O)O)NC(=O)[C@H](C)NC(=O)[C@H](C)NC(=O)[C@H](C)NC(=O)[C@H](CCC(=O)O)NC(=O)[C@@H]1CCCN1C(=O)[C@H](CCCCNC(=O)CCCCCNC(=O)CC[C@H](NC(=O)CCCCCCCCCCCCCCCCC(=O)O)C(=O)O)NC(=O)[C@H](C)NC(=O)[C@@H]1CCCN1C(=O)[C@H](C)NC(=O)CC(C)C)C(=O)N[C@@H](CCC(N)=O)C(=O)N[C@@H](CCCNC(=N)N)C(=O)N[C@@H](Cc1ccc(O)cc1)C(=O)N[C@@H](Cc1ccc(O)cc1)C(=O)N[C@H](C(=O)N[C@@H](C)C(=O)N[C@@H](CC(C)C)C(=O)N[C@@H](CCCNC(=N)N)C(=O)N[C@@H](Cc1c[nH]cn1)C(=O)N[C@@H](Cc1ccc(O)cc1)C(=O)N[C@@H](Cc1ccc(O)cc1)C(=O)N[C@@H](CC(N)=O)C(=O)N[C@@H](Cc1c[nH]c2ccccc12)C(=O)N[C@@H](CC(C)C)C(=O)N[C@H](C(=O)N[C@@H](CCCNC(=N)N)C(=O)N[C@@H](CCC(N)=O)C(=O)N[C@@H](CCCNC(=N)N)C(=O)N[C@@H](Cc1ccc(O)cc1)C(N)=O)[C@@H](C)O)C(C)C [Compound 116, N{alpha-4}-(3-methylbutanoyl)-N{epsilon-7}-(6-[(4S)-4-carboxy-4-(17-carboxyheptadecanamido)butanamido]hexanoyl)-[4A,6A,7K,9E,10A,11A,13E,17I,18Q,22V,23A,28Y,30W,31L]-hPYY(4-36)] | 0.0 | 0.0
CC(C)CC(=O)N[C@@H](C)C(=O)N1CCC[C@H]1C(=O)N[C@@H](C)C(=O)N[C@@H](CCCCNC(=O)CCCCCNC(=O)CC[C@H](NC(=O)CCCCCCCCCCCCCCCCC(=O)O)C(=O)O)C(=O)N1CCC[C@H]1C(=O)N[C@@H](CCC(=O)O)C(=O)N[C@@H](C)C(=O)N[C@@H](C)C(=O)N[C@@H](C)C(=O)N[C@@H](CCC(=O)O)C(=O)N1CCC[C@H]1C(=O)N[C@@H](CCC(=O)O)C(=O)N[C@@H](CCC(=O)O)C(=O)N[C@@H](CC(C)C)C(=O)N[C@@H](CCC(N)=O)C(=O)N[C@@H](CCCNC(=N)N)C(=O)N[C@@H](Cc1ccc(O)cc1)C(=O)N[C@@H](Cc1ccc(O)cc1)C(=O)N[C@H](C(=O)N[C@@H](C)C(=O)N[C@@H](CC(C)C)C(=O)N[C@@H](CCCNC(=N)N)C(=O)N[C@@H](Cc1c[nH]cn1)C(=O)N[C@@H](Cc1ccc(O)cc1)C(=O)N[C@@H](Cc1ccc(O)cc1)C(=O)N[C@@H](CC(N)=O)C(=O)N[C@@H](Cc1c[nH]c2ccccc12)C(=O)N[C@@H](CC(C)C)C(=O)N[C@H](C(=O)N[C@@H](CCCNC(=N)N)C(=O)N[C@@H](CCC(N)=O)C(=O)N[C@@H](CCCNC(=N)N)C(=O)N[C@@H](Cc1ccc(O)cc1)C(N)=O)[C@@H](C)O)C(C)C [Compound 10, N{alpha-4}-(3-methylbutanoyl)-N{epsilon-7}-(6-[(4S)-4-carboxy-4-(17-carboxyheptadecanamido)butanamido]hexanoyl)[4A,6A,7K,9E,10A,11A,13E,18Q,22V,23A,28Y,30W,31L]-hPYY(4-36)] | 0.0 | 0.0
CC(C)CC(=O)N[C@@H](C)C(=O)N1CCC[C@H]1C(=O)N[C@@H](CCC(=O)O)C(=O)N[C@@H](CCCCNC(=O)CCCCCNC(=O)CC[C@H](NC(=O)CCCCCCCCCCCCCCCCC(=O)O)C(=O)O)C(=O)N1CCC[C@H]1C(=O)N[C@@H](CCC(=O)O)C(=O)N[C@@H](CCC(=O)O)C(=O)N[C@@H](CC(=O)O)C(=O)N[C@@H](C)C(=O)N[C@H](C(=O)N1CCC[C@H]1C(=O)N[C@@H](CCC(=O)O)C(=O)N[C@@H](CCC(=O)O)C(=O)N[C@@H](CC(C)C)C(=O)N[C@@H](CCC(N)=O)C(=O)N[C@@H](CCCNC(=N)N)C(=O)N[C@@H](Cc1ccc(O)cc1)C(=O)N[C@@H](CCC(N)=O)C(=O)N[C@H](C(=O)N[C@@H](CO)C(=O)N[C@@H](CC(C)C)C(=O)N[C@@H](CCCNC(=N)N)C(=O)N[C@@H](Cc1c[nH]cn1)C(=O)N[C@@H](Cc1ccc(O)cc1)C(=O)N[C@@H](Cc1ccc(O)cc1)C(=O)N[C@@H](CC(N)=O)C(=O)N[C@@H](Cc1c[nH]c2ccccc12)C(=O)N[C@@H](CC(C)C)C(=O)N[C@H](C(=O)N[C@@H](CCCNC(=N)N)C(=O)N[C@@H](CCC(N)=O)C(=O)N[C@@H](CCCNC(=N)N)C(=O)N[C@@H](Cc1ccc(O)cc1)C(N)=O)[C@@H](C)O)C(C)C)[C@@H](C)O [Compound 115, N{alpha-4}-(3-methylbutanoyl)-N{epsilon-7}-(6-[(4S)-4-carboxy-4-(17-carboxyheptadecanamido)butanamido]hexanoyl)-[4A,7K,9E,13T,18Q,21Q,22V,28Y,30W,31L]-hPYY(4-36)] | 9.0 | 8.5
CC(C)CC(=O)N[C@@H](C)C(=O)N1CCC[C@H]1C(=O)N[C@@H](CCC(=O)O)C(=O)N[C@@H](CCCCNC(=O)CCCCCNC(=O)CC[C@H](NC(=O)CCCCCCCCCCCCCCCCC(=O)O)C(=O)O)C(=O)N1CCC[C@H]1C(=O)N[C@@H](CCC(=O)O)C(=O)N[C@@H](C)C(=O)N[C@@H](CC(=O)O)C(=O)N[C@@H](C)C(=O)N[C@@H](CCC(=O)O)C(=O)N1CCC[C@H]1C(=O)N[C@@H](CCC(=O)O)C(=O)N[C@@H](CCC(=O)O)C(=O)N[C@@H](CC(C)C)C(=O)N[C@@H](CCC(N)=O)C(=O)N[C@@H](CCCNC(=N)N)C(=O)N[C@@H](Cc1ccc(O)cc1)C(=O)N[C@@H](Cc1ccc(O)cc1)C(=O)N[C@H](C(=O)N[C@@H](C)C(=O)N[C@@H](CC(C)C)C(=O)N[C@@H](CCCNC(=N)N)C(=O)N[C@@H](Cc1c[nH]cn1)C(=O)N[C@@H](Cc1ccc(O)cc1)C(=O)N[C@@H](Cc1ccc(O)cc1)C(=O)N[C@@H](CC(N)=O)C(=O)N[C@@H](Cc1c[nH]c2ccccc12)C(=O)N[C@@H](CC(C)C)C(=O)N[C@H](C(=O)N[C@@H](CCCNC(=N)N)C(=O)N[C@@H](CCC(N)=O)C(=O)N[C@@H](CCCNC(=N)N)C(=O)N[C@@H](Cc1ccc(O)cc1)C(N)=O)[C@@H](C)O)C(C)C [Compound 6, N{alpha-4}-(3-methylbutanoyl)-N{epsilon-7}-(6-[(4S)-4-carboxy-4-(17-carboxyheptadecanamido)butanamido]hexanoyl)[4A,7K,9E,10A,13E,18Q,22V,23A,28Y,30W,31L]-hPYY(4-36)] | 9.6 | 10.0

The remaining lines, values ahead:

Sol6 [mg/mL] | Sol7 [mg/mL] | Compound
8.8 | 9.1 | CC(C)CC(=O)N[C@@H](C)C(=O)N1CCC[C@H]1C(=O)N[C@@H](C)C(=O)N[C@@H](CCCCNC(=O)CCCCCNC(=O)CC[C@H](NC(=O)CCCCCCCCCCCCCCCCC(=O)O)C(=O)O)C(=O)N1CCC[C@H]1C(=O)N1CCC[C@H]1C(=O)N[C@@H](CCC(=O)O)C(=O)N[C@@H](CC(=O)O)C(=O)N[C@@H](C)C(=O)N[C@@H](CCC(=O)O)C(=O)N1CCC[C@H]1C(=O)N[C@@H](CCC(=O)O)C(=O)N[C@@H](CCC(=O)O)C(=O)N[C@@H](CC(C)C)C(=O)N[C@@H](CCC(N)=O)C(=O)N[C@@H](CCCNC(=N)N)C(=O)N[C@@H](Cc1ccc(O)cc1)C(=O)N[C@@H](Cc1ccc(O)cc1)C(=O)N[C@H](C(=O)N[C@@H](CO)C(=O)N[C@@H](CC(C)C)C(=O)N[C@@H](CCCNC(=N)N)C(=O)N[C@@H](Cc1c[nH]cn1)C(=O)N[C@@H](Cc1ccc(O)cc1)C(=O)N[C@@H](Cc1ccc(O)cc1)C(=O)N[C@@H](CC(N)=O)C(=O)N[C@@H](Cc1c[nH]c2ccccc12)C(=O)N[C@@H](CC(C)C)C(=O)N[C@H](C(=O)N[C@@H](CCCNC(=N)N)C(=O)N[C@@H](CCC(N)=O)C(=O)N[C@@H](CCCNC(=N)N)C(=O)N[C@@H](Cc1ccc(O)cc1)C(N)=O)[C@@H](C)O)C(C)C [Compound 165, N{alpha-4}-(3-methylbutanoyl)-N{epsilon-7}-(6-[(4S)-4-carboxy-4-(17-carboxyheptadecanamido)butanamido]hexanoyl)-[4A,6A,7K,9P,13E,18Q,22V,28Y,30W,31L]-hPYY(4-36)]
8.1 | 7.6 | CC(C)CC(=O)N[C@@H](C)C(=O)N1CCC[C@H]1C(=O)N[C@@H](C)C(=O)N[C@@H](CCCCNC(=O)CCCCCNC(=O)CC[C@H](NC(=O)CCCCCCCCCCCCCCCCC(=O)O)C(=O)O)C(=O)N1CCC[C@H]1C(=O)N[C@@H](CCC(=O)O)C(=O)N[C@@H](CCC(=O)O)C(=O)N[C@@H](CC(=O)O)C(=O)N[C@@H](C)C(=O)N[C@@H](CO)C(=O)N1CCC[C@H]1C(=O)N[C@@H](CCC(=O)O)C(=O)N[C@@H](CCC(=O)O)C(=O)N[C@@H](CC(C)C)C(=O)N[C@@H](CCC(N)=O)C(=O)N[C@@H](CCCNC(=N)N)C(=O)N[C@@H](Cc1ccc(O)cc1)C(=O)N[C@@H](Cc1ccc(O)cc1)C(=O)N[C@H](C(=O)N[C@@H](CO)C(=O)N[C@@H](CC(C)C)C(=O)N[C@@H](CCCNC(=N)N)C(=O)N[C@@H](Cc1c[nH]cn1)C(=O)N[C@@H](Cc1ccc(O)cc1)C(=O)N[C@@H](Cc1ccc(O)cc1)C(=O)N[C@@H](CCC(N)=O)C(=O)N[C@@H](Cc1c[nH]c2ccccc12)C(=O)N[C@@H](CC(C)C)C(=O)N[C@H](C(=O)N[C@@H](CCCNC(=N)N)C(=O)N[C@@H](CCC(N)=O)C(=O)N[C@@H](CCCNC(=N)N)C(=O)N[C@@H](Cc1ccc(O)cc1)C(N)=O)[C@@H](C)O)C(C)C [Compound 78, N{alpha-4}-(3-methylbutanoyl)-N{epsilon-7}-(6-[(4S)-4-carboxy-4-(17-carboxyheptadecanamido)butanamido]hexanoyl)-[4A,6A,7K,9E,18Q,22V,28Y,29Q,30W,31L]-hPYY(4-36)]

Reference: patent publication US12391737B2, “Soluble NPY2 receptor agonists” (Boehringer Ingelheim International GmbH, priority 2020, dated 2025)
